From ChEMBL document CHEMBL5137022, “Antitumor Activity of Rutaecarpine in Human Colorectal Cancer Cells by Suppression of Wnt/β-Catenin Signaling” (J Nat Prod, 2022)
Activity calls are given as the source filed them. The calls are words filed in the database; no cut-off is given here.

Assays:
[1] = tested on: LS174T; assay: Induction of cell cycle arrest in human LS174T cells assessed as accumulation of cells at G2/M phase at 20 uM measured after 24 hrs by RNase A/propidium iodide staining based flow cytometric analysis (reference value: 12.2 %); format: functional
[2] = tested on: LS174T; assay: Induction of apoptosis in human LS174T cells assessed as total cell death at 30 uM measured after 48 hrs by AnnexinV-FITC/PI staining based flowcytometry analysis relative to control; format: functional
[3] = tested on: LS174T; assay: Induction of cell cycle arrest in human LS174T cells assessed as downregulation of CDK6 expression measured after 24 hrs by Western blot analysis; format: functional, cell-based; conditions: dose 5-20 µM, DDE = dose-dependent effect
[4] = tested on: LS174T; assay: Induction of cell cycle arrest in human LS174T cells assessed as accumulation of cells at S phase at 20 uM measured at 48 hrs by RNase A/propidium iodide staining based flow cytometric analysis (reference value: 11.4 %); format: functional
[5] = tested on: LS174T; assay: Downregulation of snail expression in human LS174T cells at up to 8 uM incubated for 24 hrs by Western blot analysis; format: functional, cell-based
[6] = tested on: LS174T; assay: Induction of cell cycle arrest in human LS174T cells assessed as accumulation of cells at sub-G1 phase at 20 uM measured at 36 hrs by RNase A/propidium iodide staining based flow cytometric analysis (reference value: 0.7 %); format: functional
[7] = tested on: LS174T; assay: Induction of apoptosis in human LS174T cells assessed as upregulation of cleaved PARP expression measured after 48 hrs by Western blot analysis; format: functional, cell-based; conditions: dose 20-40 µM, DDE = dose-dependent effect
[8] = tested on: LS174T; assay: Induction of cell cycle arrest in human LS174T cells assessed as accumulation of cells at S phase at 20 uM measured at 24 hrs by RNase A/propidium iodide staining based flow cytometric analysis (reference value: 11.4 %); format: functional
[9] = tested on: Mus musculus; assay: Downregulation of snail protein expression in tumor of BALB/c mouse xenografted with human LS174T cells at 10 to 30 mg/kg, ip administered 3 times per week for 21 days by Western blot analysis; format: functional, organism-based; conditions: dose 10-30 mg/kg, time 21.0 day
[10] = tested on: LS174T; assay: Induction of apoptosis in human LS174T cells assessed as total cell death at 40 uM measured after 48 hrs by AnnexinV-FITC/PI staining based flowcytometry analysis relative to control; format: functional
[11] = tested on: Mus musculus; assay: Downregulation of N-cadherin expression in tumor of BALB/c mouse xenografted with human LS174T cells at 10 to 30 mg/kg, ip administered 3 times per week for 21 days by immunohistochemical based analysis; format: functional, organism-based; conditions: dose 10-30 mg/kg, time 21.0 day
[12] = tested on: CCD-841CoN; assay: Antiproliferative activity against human CCD-841CoN cells assessed as reduction in cell viability measured after 72 hrs by SRB assay; format: functional, cell-based
[13] = tested on: LS174T; assay: Induction of cell cycle arrest in human LS174T cells assessed as accumulation of cells at G2/M phase at 20 uM measured at 12 hrs by RNase A/propidium iodide staining based flow cytometric analysis (reference value: 12.9 %); format: functional
[14] = tested on: LS174T; assay: Induction of cell cycle arrest in human LS174T cells assessed as accumulation of cells at G0/G1 phase at 20 uM measured after 24 hrs by RNase A/propidium iodide staining based flow cytometric analysis (reference value: 71.7 %); format: functional
[15] = tested on: LS174T; assay: Induction of apoptosis in human LS174T cells assessed as upregulation of cleaved caspase-9 expression measured after 48 hrs by Western blot analysis; format: functional, cell-based; conditions: dose 20-40 µM, DDE = dose-dependent effect
[16] = tested on: LS174T; assay: Downregulation of survivin expression in human LS174T cells at 2.5 to 20 uM incubated for 24 hrs by Western blot analysis; format: functional, cell-based; conditions: dose 2.5-20 µM
[17] = Toxicity in BALB/c nude mouse xenografted with human LS174T cells assessed as effect on body weight at 30 mg/kg, IP administered 3 times per week for 21 days; format: organism-based; conditions: in vivo, 504 h, time 21 day
[18] = tested on: LS174T; assay: Induction of cell cycle arrest in human LS174T cells assessed as accumulation of cells at G0/G1 phase at 20 uM measured at 48 hrs by RNase A/propidium iodide staining based flow cytometric analysis (reference value: 74.8 %); format: functional
[19] = tested on: LS174T; assay: Induction of cell cycle arrest in human LS174T cells assessed as downregulation of cyclin E expression measured after 24 hrs by Western blot analysis; format: functional, cell-based; conditions: dose 5-20 µM, DDE = dose-dependent effect
[20] = tested on: LS174T; assay: Induction of cell cycle arrest in human LS174T cells assessed as accumulation of cells at S phase at 20 uM measured at 36 hrs by RNase A/propidium iodide staining based flow cytometric analysis (reference value: 11.4 %); format: functional
[21] = tested on: LS174T; assay: Downregulation of beta-catenin expression in human LS174T cells at 2.5 to 20 uM incubated for 24 hrs by Western blot analysis; format: functional, cell-based; conditions: dose 2.5-20 µM
[22] = tested on: SW480; assay: Antiproliferative activity against human SW480 cells harboring wild type beta-catenin assessed as reduction in cell viability measured after 72 hrs by SRB assay; format: functional, cell-based; conditions: SW480, 72 h
[23] = Toxicity in BALB/c nude mouse xenografted with human LS174T cells assessed as effect on body weight at 10 to 30 mg/kg, ip administered 3 times per week for 21 days; format: organism-based; conditions: in vivo, 504 h, dose 10-30 mg/kg, time 21 day
[24] = tested on: LS174T; assay: Induction of cell cycle arrest in human LS174T cells assessed as accumulation of cells at sub-G1 phase at 20 uM measured at 24 hrs by RNase A/propidium iodide staining based flow cytometric analysis (reference value: 0.7 %); format: functional
[25] = tested on: CCD-18Co; assay: Antiproliferative activity against human CCD-18Co cells assessed as reduction in cell viability measured after 72 hrs by SRB assay; format: functional, cell-based
[26] = tested on: Mus musculus; assay: Downregulation of survivin expression in tumor of BALB/c mouse xenografted with human LS174T cells at 10 to 30 mg/kg, ip administered 3 times per week for 21 days by Western blot analysis; format: functional, organism-based; conditions: dose 10-30 mg/kg, time 21.0 day
[27] = tested on: HCT-116; assay: Antiproliferative activity against human HCT-116 cells harboring beta-catenin mutant assessed as reduction in cell viability measured after 72 hrs by SRB assay; format: functional, cell-based; conditions: HCT-116, 72 h
[28] = tested on: Mus musculus; assay: Downregulation of Ki-67 expression in tumor of BALB/c mouse xenografted with human LS174T cells at 10 to 30 mg/kg, ip administered 3 times per week for 21 days by immunohistochemical based analysis; format: functional, organism-based; conditions: dose 10-30 mg/kg, time 21.0 day
[29] = tested on: LS174T; assay: Inhibition of cell migration in human LS174T cells assessed as reduction in wound closure incubated for 24 hrs by wound healing assay; format: functional, cell-based; conditions: dose 2-8 µM, DDE = dose-dependent effect
[30] = tested on: LS174T; assay: Induction of cell cycle arrest in human LS174T cells assessed as accumulation of cells at G2/M phase at 20 uM measured at 36 hrs by RNase A/propidium iodide staining based flow cytometric analysis (reference value: 12.9 %); format: functional
[31] = tested on: LS174T; assay: Antitumor activity against human LS174T cells xenografted in BALB/c nude mouse assessed as reduction in tumor weight at 30 mg/kg, ip administered 3 times per week for 21 days by electronic caliper method; format: functional; parameters: scale not given: the % may be the effect or the level left; conditions: time 21 day
[32] = tested on: LS174T; assay: Induction of apoptosis in human LS174T cells assessed as total cell death at 20 uM measured after 48 hrs by AnnexinV-FITC/PI staining based flowcytometry analysis relative to control; format: functional
[33] = tested on: LS174T; assay: Induction of cell cycle arrest in human LS174T cells assessed as accumulation of cells at G0/G1 phase at 5 uM measured after 24 hrs by RNase A/propidium iodide staining based flow cytometric analysis (reference value: 71.7 %); format: functional

O=c1c2ccccc2nc2n1CCc1c-2[nH]c2ccccc12 [RUTAECARPINE]
Activity [1]: 7%
Activity [2]: 65.7%
Activity [3]: Dde
Activity [4]: 4.7%
Activity [5]: Active
Activity [6]: 6.1%
Activity [7]: Dde
Activity [8]: 2.2%
Activity [9]: Active
Activity [10]: 85.4%
Activity [11]: Active
IC50 [12]: > 50 µM
Activity [13]: 16.8%
Activity [14]: 87.3%
Activity [15]: Dde
Activity [16]: Active
Activity [17]: Non-Toxic
Activity [18]: 76.9%
Activity [19]: Dde
Activity [20]: 2.1%
Activity [21]: Active
IC50 [22]: > 50 µM
Activity [23]: Non-Toxic
Activity [24]: 2.7%
IC50 [25]: > 50 µM
Activity [26]: Active
IC50 [27]: 31.1 µM
Activity [28]: Active
inhibition [29]: Dde
Activity [30]: 4.5%
Activity [31]: 41.5%
Activity [32]: 24.7%
Activity [33]: 75.8%
